Literature values in US20220370444A1 (priority 2019, published 2022).

Tests used:
TB = conditions: after two weeks of oral administration
[1] = not told
[2] = in vivo

CC(C)/N=c1\cc2n(-c3ccc(Cl)cc3)c3ccccc3nc-2cc1Nc1ccc(Cl)cc1 [clofazimine]
clinical benefit (TB): no clinical benefit | membrane permeability [1]: high | absorption in humans after oral administration [2]: 45-62%
